Results as given in publication PMC7214178, “Ligand‐specific recycling profiles determine distinct potential for chronic analgesic tolerance of delta‐opioid receptor (DOPr) agonists” (Journal of Cellular and Molecular Medicine, 2020).

Columns and labels:
Flag‐DOPr [1] = experiment: Agonist‐induced internalization of Flag‐DOPrs in primary cortical neuron cultures; format: cell-based, Murine; details: 10 µmol/L, 60 min; rat primary cortical neurons transfected with Flag‐DOPr; three independent experiments
Description: (§1) Primary neuronal cultures were prepared from rat post‐natal prefrontal cortex (P0‐P2) as previously described. ^19 Briefly, three cultures were independently prepared from 8 to 12 pups each. Pups were cryo‐anaesthetized, and brains were removed and transferred into ice‐cold dissociation solution (NaS0_4 90 mmol/L; K2SO4 30 mmol/L; MgCl2 5.8 mmol/L; CaCl20.25 mmol/L; HEPES 10 mmol/L; glucose 20 mmol/L; pH 7.4). Following dissection, the frontal cortex was digested in papain solution (20 U/mL; 40 minutes at 37°C), and the product passed through Pasteur pipettes of progressively decreasing diameter for mechanical dissociation. The suspension obtained was centrifuged, and cells were then resuspended and diluted to a density of 2.5 million/mL, before plating onto glass coverslips pre‐coated with collagen/poly l‐lysine (each at 0.1 mg/mL). Culture proceeded in supplemented Neurocell medium (B27 4%; 100 U/mL penicillin‐streptomycin; GlutaMAX 2%; FBS 10%) for 24 hours. Coverslips were then transferred to a six‐well plate containing 2 mL of Neurocell medium/well and transfected with Flag‐DOPr (8 µg/well), using a calcium phosphate transfection protocol previously. ^19 Murine DORs tagged with the Flag epitope at the N terminus were a generous gift from Dr M. von Zastrow (University of California at San Francisco, San Francisco, CA).
Immunolabelling of surface receptors for quantification of trafficking was performed as previously described. ^19 Briefly, primary cultures expressing Flag‐DOPrs were incubated at 37°C with Neurocell medium containing Ca^2+‐dependent mouse anti‐Flag M1 antibody (1:100; Sigma). […]
(§2) Cytoplasmic and surface labelling densities were quantified with ImageJ using a previously described method, ^27 with small modifications. ^16 In particular, total cytoplasmic labelling density was obtained by measuring fluorescence intensity within the region confined between the external and nuclear perimeters, and dividing this value by the corresponding area. […]

Flag‐DOPr [2] = experiment: DOPr recycling after recovery from agonist‐induced internalization in primary cortical neuron cultures; format: cell-based, Murine; details: for Surface labelling after recovery / Intracellular immunoreactivity after 60 min recovery vs immediately after treatment: 10 µmol/L; for Surface labelling after recovery / Effect of ECE2 inhibitor 6634449 on redistribution of internalized receptors during recovery: 60 min; for Surface labelling after recovery: then 60 min recovery, non‐permeabilized neurons; for Intracellular immunoreactivity after 60 min recovery vs immediately after treatment: then 60 min recovery in absence of ligand, permeabilized neurons; for Effect of ECE2 inhibitor 6634449 on redistribution of internalized receptors during recovery: agonist 10 µmol/L, 6634449 20 μmol/L during 60 min recovery
Description: as §1
Immunolabelling of surface receptors for quantification of trafficking was performed as previously described. ^19 Briefly, primary cultures expressing Flag‐DOPrs were incubated at 37°C with Neurocell medium containing Ca^2+‐dependent mouse anti‐Flag M1 antibody (1:100; Sigma). After 30 minutes incubation with the antibody, vehicle (0.05% DMSO in Neurocell) or agonist (TIPP, deltorphin II; SNC‐80; SB235863; 10 μmol/L) was added to the medium for 60 minutes. At the end of this period, cultured neurons were washed at 37°C once in calcium‐free PBS and then in PBS in order to remove treatment agonist as well as antibody bound to receptors that may have remained at the membrane after agonist exposure. For visualization of internalized receptors, cultures were immediately fixed with 4% PFA, permeabilized with PBS/0.1% Triton (20 minutes at room temperature (RT)), blocked with PBS/BSA 1% (10 minutes at RT) and incubated with secondary antimouse Alexa 488‐conjugated donkey antibody (1:1000; Invitrogen, A21202). Alternatively, cultured neurons were allowed to recover for 60 minutes in the absence of ligand before a second round of calcium‐free PBS wash was completed before fixation, permeabilization and incubation with secondary antibody. The latter procedure allowed to remove antibody bound to Flag‐DOPrs that translocated to the surface during recovery ensuring the exclusive labelling of receptors that were retained intracellularly. ^26 Another set of neurons was similarly treated with agonist or vehicle and then allowed to recover for 60 minutes following which they were fixed and incubated with secondary antibody without permeabilization, so as to exclusively reveal Flag‐DOPrs that reappeared at the surface during recovery from internalization; measures of surface labelling were normalized to intracellular labelling produced during internalization. Recycling was thus established by taking two independent measures: (a) cytoplasmic labelling density lost during recovery from treatment and (b) gain in surface labelling density when neurons were allowed to recover from agonist‐induced internalization. In experiments in which 6634449 was introduced in the medium during recovery, the concentration used was 20 μmol/L.
as §2

DOPr = tested on: DOPr; design: method as in PMID 24174495; details: cited from earlier work

Row | Compound | Sequestration (intracellular labelling density) (Flag‐DOPr [1]) | Surface labelling after recovery (Flag‐DOPr [2]) | Intracellular immunoreactivity after 60 min recovery vs immediately after treatment (Flag‐DOPr [2]) | Effect of ECE2 inhibitor 6634449 on redistribution of internalized receptors during recovery (Flag‐DOPr [2]) | Decay of cAMP inhibition in HEK cells (DOPr)
1 | CCC(C)COC(=O)c1[nH]c2c(c1C)CC1C3Cc4ccc(OC)c5c4C1(CCN3C)C2O5.Cl (stereo not drawn) [SB235863, [8R‐(4bS*,8aα,8aβ,12bβ)]7,10‐dimethyl‐1‐methoxy‐11‐(2‐ethylpropyl)oxycarbonyl 5,6,7,8,12,12b‐hexahydro‐(9H)‐4,8‐methanobenzofuro[3,2‐e]pyrrolo[2,3‐g]isoquinoline hydrochloride] | low‐internalizing | less | not different from the one observed immediately after the end of treatment | without effect | slow decay
2 | C=CCN1C[C@H](C)N([C@H](c2ccc(C(=O)N(CC)CC)cc2)c2cccc(OC)c2)C[C@H]1C [SNC‐80, (+)‐4‐[(αR)‐α‐((2S,5R)‐4‐allyl‐2,5‐dimethyl‐1‐piperazinyl)‐3‐methoxybenzyl]‐N,N‐diethylbenzamide] | significantly higher | less | not different from the one observed immediately after the end of treatment | without effect | fast decay
3 | deltorphin II | significantly higher | – | significantly reduced | remain trapped in the cytosol | fast decay
